This is an account of results in ChEMBL document CHEMBL3507680, “University of Dundee, Gates Library screen for HepG2 cell viability”.

This data set is described as follows: Human HepG2 cell viability assay in 384 well format. Type of data set: toxicity, cell-based. Also on record: dose 125 nL, time 70.5 hour; concentration not given beside the values. As to conditions: HepG2 cells, read-out: Inhibition.
Turning to `CC[C@@H]1N(Cc2ccccn2)CCC[C@]12CCC(=O)N2CCOC`, the cytotoxicity at 70.5 h is -5.82%.

`CCCOc1cc(CNC(=O)Nc2cccc(C(C)=O)c2)ccn1`: the cytotoxicity at 70.5 h was -0.91%.

Consider `COc1ccccc1OC1CN(C(=O)c2c(C)nc3ccc(C)cn23)C1`, for which the cytotoxicity at 70.5 h is -1.56%.

Consider `O=C(Nc1ccccc1)C1=CC2(CCNCC2)c2ccccc21`, for which the cytotoxicity at 70.5 h was 3.63%.

With `Cc1nnc([C@@H]2CC[C@@H]3[C@@H](CCN3S(C)(=O)=O)O2)o1`, the cytotoxicity at 70.5 h is -10.9%.

As to `CSc1ccc(C(=O)N2C[C@H]3CC[C@@H]2CN(Cc2ccccc2)C3)cc1`, the cytotoxicity at 70.5 h is -0.304%.

As for `Cc1noc(C)c1-c1cc(CCC2CN(C(=O)CN)CCO2)ncn1` (stereo not drawn), the cytotoxicity at 70.5 h was -2.94%.

`COc1ccc(CC(=O)N2CCCC(Cn3cc(CN)nn3)C2)cc1` (stereo not drawn): the cytotoxicity at 70.5 h was -4.47%.

With `CC(C)c1nc(CNC2CCN(S(C)(=O)=O)CC2)cs1`, the cytotoxicity at 70.5 h amounted to 20.3%.

`O=C(c1ncn2c1CNS(=O)(=O)c1ccccc1-2)N1CCCCC1`: the cytotoxicity at 70.5 h is -2.38%.

With `O=C(CCNC(=O)c1cccc(OC(F)F)c1)Nc1cccnc1`, the cytotoxicity at 70.5 h is -3.8%.

Consider `O=C1CCN(CCCS(=O)(=O)c2ccc(Cl)cc2)CCN1`, for which the cytotoxicity at 70.5 h is -4.67%.

Take `CCN(C(=O)CN(C)C(c1cccc(F)c1)c1ccccn1)C1CC1` (stereo not drawn): the cytotoxicity at 70.5 h is -5.47%.

For `COc1ccc(CNC(=O)CNc2cc3c(cc2Cl)OCCO3)cc1`, the cytotoxicity at 70.5 h was -0.455%.

In the case of `CO[C@H]1CN(C(=O)c2ccnnc2)[C@@H]2COC[C@H]12`, the cytotoxicity at 70.5 h came to 36.6%.

Consider `c1ccc(NCc2ccsc2)c(Cn2cncn2)c1`, for which the cytotoxicity at 70.5 h is -15.1%.

On to `Cc1nc(N2CCCCC2)ncc1C(=O)N1CC(C)(C)[C@@](C)(O)C1`, for which the cytotoxicity at 70.5 h is -6.11%.

As to `CC(C)N(C)[C@@H]1CCN(c2ncccn2)[C@H]1Cc1ccncc1`, the cytotoxicity at 70.5 h came to 1.38%.

For the molecule `O=S(=O)(CCNCc1ccc(Cl)cc1)N1CCOCC1`, the cytotoxicity at 70.5 h was 15.5%.

With `Cc1cc(CN(C)C(=O)C(c2ccccc2F)N(C)C)ccn1` (stereo not drawn), the cytotoxicity at 70.5 h is -7.87%.

Consider `Cc1cc(Cl)ccc1S(=O)(=O)NCC(C)N1CCN(C)CC1` (stereo not drawn), for which the cytotoxicity at 70.5 h is -0.894%.

Turning to `CCCc1nnc(N2CCC(C3CCN(C)CC3)CC2)o1`, the cytotoxicity at 70.5 h is 9.11%.

Take `Clc1cc(Cl)cc(CN2CCC(NCc3ncc[nH]3)CC2)c1`: the cytotoxicity at 70.5 h is -4.36%.

`CCC(SC)C(=O)N1CCC(n2ccnn2)CC1` (stereo not drawn): the cytotoxicity at 70.5 h was -7.09%.

For the molecule `CC1COC2(CCN(C(=O)c3ncoc3C(C)C)CC2)O1` (stereo not drawn), the cytotoxicity at 70.5 h stood at 11.1%.

Consider `CS(=O)(=O)CCNCc1ccc(OCc2ccncc2)cc1`, for which the cytotoxicity at 70.5 h is 19.2%.

For `CCC(=O)N1CCC2(CC1)c1nc[nH]c1CCN2S(C)(=O)=O`, the cytotoxicity at 70.5 h is -4.48%.

As to `COC(=O)c1cc(C(=O)N2CCCCC2C)n(-c2ccccc2)n1` (stereo not drawn), the cytotoxicity at 70.5 h stood at 19.1%.

For the molecule `CCn1cc(NC(=O)N2CCN(CCSc3ccccc3)CC2)cn1`, the cytotoxicity at 70.5 h was -7.68%.

For the molecule `CN1CCCC[C@@H]2[C@H]1[C@@H](c1ccccc1)CCN2C(=O)c1ccccc1`, the cytotoxicity at 70.5 h stood at 1.32%.

On to `Cc1nc(C(C)(C)NC(=O)Nc2ccccc2)no1`, for which the cytotoxicity at 70.5 h amounted to 1.88%.

`Cc1nc(-c2ccc(Cl)s2)sc1C(=O)NCCCC(N)=O`: the cytotoxicity at 70.5 h was -4.42%.

For `CN(Cc1ccc(N(C)C)cc1)C(=O)NCc1nnc2n1CCC2`, the cytotoxicity at 70.5 h was -5.5%.

With `COc1cccc(OCc2cc(C(=O)N3CC(O)C3)n[nH]2)c1`, the cytotoxicity at 70.5 h was -2.2%.

`CC(CNC(=O)c1cc(C2CC2)nc2c1cnn2C)Cn1cccn1` (stereo not drawn): the cytotoxicity at 70.5 h was -6.63%.

Turning to `O=C(c1cnc(-c2cnccn2)s1)N1CCCC1Cn1cccn1` (stereo not drawn), the cytotoxicity at 70.5 h is -3.28%.

Regarding `CCC[C@@H]1CN(Cc2c[nH]c(CC3CCCC3)n2)C[C@H]1C(=O)O`, the cytotoxicity at 70.5 h is -7.4%.

Regarding `CCn1cc(CN2C[C@@H]3CCCN3C[C@@H]2CCSC)c(C)n1`, the cytotoxicity at 70.5 h is -22.6%.

Turning to `CC(O)CN1CCC(CNCc2cccc(Br)c2)CC1` (stereo not drawn), the cytotoxicity at 70.5 h amounted to 24.8%.

In the case of `Cc1cccc(C(=O)N2CCSCC2)c1NC(=O)c1cccnc1`, the cytotoxicity at 70.5 h was -7.35%.

For the molecule `CN(C)c1ccc(C(=O)N2CCCCC2CC(N)=O)c(F)c1` (stereo not drawn), the cytotoxicity at 70.5 h was -1.41%.

On to `COC(=O)CC(C)(C)CC(=O)N1CCC(C(F)(F)F)CC1`, for which the cytotoxicity at 70.5 h turned out to be 1.71%.

Turning to `COCc1c(Br)cccc1NC(=O)CC(F)(F)F`, the cytotoxicity at 70.5 h is -13.2%.

On to `Cn1cc(CN2CCN(CC3(c4ccccc4)CC3)CC2)cn1`, for which the cytotoxicity at 70.5 h was -11.2%.

Take `COCC(=O)N1CCC2(COCc3c(C)nc(N(C)C)nc32)C1` (stereo not drawn): the cytotoxicity at 70.5 h was determined as 15.4%.

With `N#Cc1cccc(CNC(=O)NC2CCN(CC(F)F)CC2)c1`, the cytotoxicity at 70.5 h is 17.7%.

As to `Cc1ccc(NC(=O)Cc2c(C)nc3c(c2C)c(=O)[nH]n3C)cc1F`, the cytotoxicity at 70.5 h is -4.3%.

`CC(NC(=O)CCCOc1ccccc1Cl)c1ccncc1` (stereo not drawn): the cytotoxicity at 70.5 h was 13.5%.

In the case of `Cc1nc(C)n(C2CCCN(C(=O)CCc3ccncc3)C2)n1` (stereo not drawn), the cytotoxicity at 70.5 h was -0.318%.

On to `CCc1nnc(CN2CCCCC2Cn2nc(C)nc2C)o1` (stereo not drawn), for which the cytotoxicity at 70.5 h is -5.83%.

For `O=C(CCc1ccc(F)cc1)NS(=O)(=O)c1ccc2c(c1)OCCCO2`, the cytotoxicity at 70.5 h was 4.05%.

`Cc1ncnc(NCc2cc3n(n2)CCCN(S(C)(=O)=O)C3)c1C`: the cytotoxicity at 70.5 h was -12.3%.

Turning to `Cc1ccc(CN2CCc3nnc(CN4CCCC4=O)n3CC2)o1`, the cytotoxicity at 70.5 h is -3.79%.

As to `Cc1cc(N(C)Cc2ncc[nH]2)nc(-c2cccnc2)n1`, the cytotoxicity at 70.5 h was -11.2%.

As for `CCCN(CCC)C1(Cc2cc(-c3cccc(O)c3)on2)COC1`, the cytotoxicity at 70.5 h is -2.95%.

Turning to `CC(C)c1nc(C2CCCN2CCc2ccncc2)no1` (stereo not drawn), the cytotoxicity at 70.5 h turned out to be 16.2%.

In the case of `Cc1ncsc1C(=O)NC1CCN(CCC#N)CC1`, the cytotoxicity at 70.5 h stood at 16.5%.

For `CCCc1nc(C)cc(N2CCC3(CCC(=O)N(CCOC)C3)CC2)n1`, the cytotoxicity at 70.5 h was -9.62%.

On to `Cc1ccc(-c2nc(CCNC(=O)NCC(C)(C)C(N)=O)co2)cc1`, for which the cytotoxicity at 70.5 h is -0.0567%.

As to `COc1c(C2CCCN2C(=O)c2ccc3c(c2)OCO3)c(C)nn1C` (stereo not drawn), the cytotoxicity at 70.5 h was -2.19%.

For the molecule `Cc1ccc(CNCC2CCN(CC(O)c3ccccc3)CC2)o1` (stereo not drawn), the cytotoxicity at 70.5 h is -1.65%.

With `O=C(O)C1CCN(c2ccc(Sc3ccc(Br)cc3)nn2)CC1`, the cytotoxicity at 70.5 h worked out at 26.1%.

On to `CC(C)c1nc2c(n1C)CCN(CCCc1nc3ccccc3o1)C2`, for which the cytotoxicity at 70.5 h was -0.617%.

On to `CCN(CC)c1ncccc1CNC(=O)c1cc2nc(C)cc(C)n2n1`, for which the cytotoxicity at 70.5 h is -0.33%.

As for `Cn1cccc1C(=O)NCc1cnc2n1CCN(C(=O)c1ccoc1)C2`, the cytotoxicity at 70.5 h was -7.47%.

Consider `Cc1cnc(C(=O)N2CCC(C(=O)c3cc(F)ccc3F)CC2)cn1`, for which the cytotoxicity at 70.5 h is -5.07%.

Consider `CC(=O)N[C@H]1CN(CC(=O)NCc2ccccc2C)C[C@@H]1C(C)C`, for which the cytotoxicity at 70.5 h was -4.45%.

In the case of `CCc1noc(C(C)N(C)CC(=O)Nc2ccc(Br)cc2C)n1` (stereo not drawn), the cytotoxicity at 70.5 h is -96.5%.

On to `COc1ccc(N2CCC(NS(=O)(=O)N(C)C(C)C)CC2)cc1`, for which the cytotoxicity at 70.5 h stood at 7.03%.

As for `COC(=O)N1CCC(CNS(=O)(=O)c2cnn(C)c2)CC1`, the cytotoxicity at 70.5 h was -0.269%.

In the case of `COCCN(C(=O)c1nc(-c2ccco2)sc1C)C1CC1`, the cytotoxicity at 70.5 h was -2.88%.

For `C=C(C)COc1ccccc1C(=O)N1CCC2(CC1)CN(C)CCN2C`, the cytotoxicity at 70.5 h was -11.5%.

On to `CC(C)N1CCc2ncn(C)c2C1C(=O)N1CCOCC1` (stereo not drawn), for which the cytotoxicity at 70.5 h is 5.22%.

Regarding `COc1cc(S(=O)(=O)N2CCCc3ccccc32)cc(C(=O)O)c1OC`, the cytotoxicity at 70.5 h came to 5.62%.

As to `Cc1cc(N2CCC(O)CC2)nc(C2CCCN2C)n1` (stereo not drawn), the cytotoxicity at 70.5 h was -5.82%.

For the molecule `CC(C)CC(=O)N1CCN(C(=O)N(C)C)CC2(CC(=O)N(C)C2)C1` (stereo not drawn), the cytotoxicity at 70.5 h stood at 0.114%.

As to `CC(Cn1cnc2cn(C)nc2c1=O)Oc1cccnc1` (stereo not drawn), the cytotoxicity at 70.5 h was determined as 20.4%.

Consider `CN(C)C(=O)CN1CCC2(CCN(C(=O)N(C)C)CC2)C1=O`, for which the cytotoxicity at 70.5 h was 17%.

Consider `c1ccc(CN2CCc3ncnc(N4CCCC4)c3CC2)nc1`, for which the cytotoxicity at 70.5 h is -4.15%.

With `CC(C)Oc1ccc(CNC(=O)NCC(C)(C)C(N)=O)cc1F`, the cytotoxicity at 70.5 h is -5.2%.

On to `CCOc1ncccc1CNS(=O)(=O)c1ccc2c(c1)CCC2`, for which the cytotoxicity at 70.5 h is 4.98%.

Consider `CC(=O)c1c(O)n(C)c2ccc(C)cc12`, for which the cytotoxicity at 70.5 h amounted to 1.11%.

Take `CNC(=O)C1(c2cnccn2)CCCN1C(=O)c1ccc(OC)cc1` (stereo not drawn): the cytotoxicity at 70.5 h was 18.7%.

On to `CCn1nc(CC(C)C)cc1C(=O)N1CCCC(C#N)C1` (stereo not drawn), for which the cytotoxicity at 70.5 h was 0.732%.

Regarding `NC(=O)NC(=O)CCN1CCN(CC2CC2)c2ccccc21`, the cytotoxicity at 70.5 h turned out to be 31.2%.

Take `O=C(C1CNCCO1)N1CCC(c2cc(N3CCCC3)ncn2)CC1` (stereo not drawn): the cytotoxicity at 70.5 h was 14.8%.

For `Cc1nc(-c2cccnc2)ncc1C(=O)N1CCCC(N(C)C)CC1` (stereo not drawn), the cytotoxicity at 70.5 h was -20%.

In the case of `CSc1nc2cc(C)n(CC(=O)NC(C)C)c2c(=O)n1CC(C)C`, the cytotoxicity at 70.5 h was -4.16%.

Consider `CN(C)CCCNC(=O)c1ccccc1NC(=O)c1ccccc1Cl`, for which the cytotoxicity at 70.5 h came to 22.1%.

Take `CC(C)n1[nH]c(=O)c2c1NC(=O)CC2c1ccc(S(C)(=O)=O)cc1` (stereo not drawn): the cytotoxicity at 70.5 h was -17.1%.

Regarding `O=C1CC(NCc2ccc(OC(F)F)cc2)CN1Cc1cccc(F)c1` (stereo not drawn), the cytotoxicity at 70.5 h is -4.49%.

In the case of `CN(C)c1cc(C(F)(F)F)cc(-c2ccc(C(=O)O)cc2)n1`, the cytotoxicity at 70.5 h was -6.98%.

For the molecule `CO[C@@H]1c2ccccc2C2(CCN(C(=O)CNC(=O)C(C)C)CC2)[C@H]1O`, the cytotoxicity at 70.5 h was -6.67%.

For the molecule `Cc1ccc(NC2CCN(C(=O)c3cccc4cccnc34)CC2)nn1`, the cytotoxicity at 70.5 h was -6.15%.

`O=C(c1cnc(O)cn1)N1C[C@@H]2CC[C@H](C1)N(Cc1ccccc1)C2`: the cytotoxicity at 70.5 h was -0.665%.

Consider `CN(C)S(=O)(=O)N1CCCC(C)(c2ncc(C(N)=O)s2)C1` (stereo not drawn), for which the cytotoxicity at 70.5 h was found to be 5.78%.

`COCCN1CC(C(=O)N(CCN(C)C)Cc2ccc(C)s2)CC1=O` (stereo not drawn): the cytotoxicity at 70.5 h was -4.05%.

With `O=C(CCCc1nc(-c2ccccc2)no1)N1CCN(CCO)CC1`, the cytotoxicity at 70.5 h was determined as 17.6%.
